Counter-ions that a name gives are not always drawn.
What was measured:
Cdk4/Cyclin D = Cdk4/Cyclin D (Homo sapiens, UniProt P11802); assay: Assay for inhibition of Cdk4/Cyclin D (32P incorporation into retinoblastoma protein, filter plate); assay type: biochemical
Procedure: (§1) To determine the inhibitory potency and selectivity of compounds of the present invention against Cdk4 and related kinases, compounds were evaluated in standard assays routinely used to measure inhibition of cyclin-dependent kinase enzymes and other protein kinases (see for example D. W. Fry et al., J. Biol. Chem. 2001, 276, 16617-16623). The assays were carried out as described below.
Assay for Inhibition of Cdk4/Cyclin D
The Cdk4 enzyme assay for IC50 determination and kinetic evaluation is performed as follows. 96-well filter plates (Millipore MADVN6550) are used. The total volume is 0.1 mL containing buffer A (20 mM TRIS (tris[hydroxymethyl]aminomethane) (pH 7.4), 50 mM NaCl, 1 mM dithiothreitol, 10 mM MgCl2), 25 [[…] ATP containing 0.25 μCi [^32P]ATP, 20 ng Cdk4, 1 μg retinoblastoma protein and the test compound at appropriate dilutions in buffer A. Buffer A alone without added test compound was employed as a control for no inhibition. Buffer A containing excess EDTA was used to determine the level of background ^32P in the absence of enzyme activity. All components except the ATP are added to the wells, and the plate is placed on a plate mixer for 2 minutes. The reaction is started by adding [^32P]ATP, and the plate is incubated at 25° C. for 15 minutes. The reaction is terminated by addition of 0.1 mL 20% trichloroacetic acid (TCA). The plate is kept at 4° C. for at least 1 hour to allow the substrate to precipitate. The wells are then washed five times with 0.2 mL 10% TCA, and ^32P incorporation is determined with a beta plate counter (Wallac Inc., Gaithersburg, Md.). The IC50 of the test compound was determined using the median effect method (Chou, T-C and Talalay, P. Applications of the median effect principle for the assessment of low-dose risk of carcinogens and for the quantitation of synergism and antagonism of chemotherapeutic agents. In: New Avenues in Developmental Cancer Chemotherapy (Eds. Harrap, K. T. and Connors, T. A.), pp. 37-64. Academic Press, New York, 1987).

Cdk2/cyclin A = Cdk2/cyclin A (Homo sapiens, UniProt P24941); assay: Assay for inhibition of Cdk2/Cyclin A (32P incorporation into retinoblastoma protein, filter plate); assay type: biochemical
Procedure: as §1
Assay for Inhibition of Cdk2/Cyclin A
Cdk2 enzyme assays for IC50 determinations and kinetic evaluation are performed as follows. 96-well filter plates (Millipore MADVN6550) are used. The final assay volume is 0.1 mL containing buffer A (20 mM TRIS (tris[hydroxymethyl]aminomethane) (pH 7.4), 50 mM NaCl, 1 mM dithiothreitol, 10 mM MgCl2), […] containing 0.25 μCi [^32P]ATP, 20 ng Cdk2/cyclin A, 1 μg retinoblastoma protein, and the test compound at appropriate dilutions in buffer A (Buffer A alone without added test compound was employed as a control for no inhibition. Buffer A containing excess EDTA was used to determine the level of background ^32P in the absence of enzyme activity). All components except the ATP are added to the wells, and the plate is placed on a plate mixer for 2 minutes. The reaction is initiated by addition of [^32P]ATP, and the plate is incubated at 25° C. for 15 minutes. The reaction is terminated by addition of 0.1 mL 20% TCA. The plate is kept at 4° C. for at least 1 hour to allow the substrate to precipitate. The wells are then washed five times with 0.2 mL 10% TCA, and ^32P incorporation is determined with a beta plate counter (Wallac Inc., Gaithersburg, Md.). The IC50 of the test compound was determined using the median effect method (Chou, T-C and Talalay, P. Applications of the median effect principle for the assessment of low-dose risk of carcinogens and for the quantitation of synergism and antagonism of chemotherapeutic agents. In: New Avenues in Developmental Cancer Chemotherapy (Eds. Harrap, K. T. and Connors, T. A.), pp. 37-64. Academic Press, New York, 1987).

neointima formation = conditions: in rats; cited from earlier work

Chain of Cdk4/Cyclin D (P11802 whole entry, species assumed): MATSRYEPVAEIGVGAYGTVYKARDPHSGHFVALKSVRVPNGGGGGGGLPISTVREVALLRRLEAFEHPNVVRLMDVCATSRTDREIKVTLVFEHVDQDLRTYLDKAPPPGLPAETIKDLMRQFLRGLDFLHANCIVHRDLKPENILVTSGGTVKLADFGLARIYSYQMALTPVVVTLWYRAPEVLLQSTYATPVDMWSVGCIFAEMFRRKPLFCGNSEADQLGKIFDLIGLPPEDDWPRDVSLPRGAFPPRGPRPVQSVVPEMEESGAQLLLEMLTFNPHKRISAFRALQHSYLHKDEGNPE
Chain of Cdk4/Cyclin D (P24385 whole entry partner, species assumed): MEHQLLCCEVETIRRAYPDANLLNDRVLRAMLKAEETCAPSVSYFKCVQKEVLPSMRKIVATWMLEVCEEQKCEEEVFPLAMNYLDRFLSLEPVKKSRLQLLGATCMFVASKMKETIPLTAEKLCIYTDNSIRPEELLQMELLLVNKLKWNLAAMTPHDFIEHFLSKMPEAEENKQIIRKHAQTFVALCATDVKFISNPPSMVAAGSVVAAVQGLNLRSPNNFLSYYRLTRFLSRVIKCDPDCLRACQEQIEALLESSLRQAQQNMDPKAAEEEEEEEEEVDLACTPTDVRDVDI

Structure (SMILES) | melting point | IC50 (Cdk4/Cyclin D) [nM] | IC50 (Cdk2/cyclin A) [nM] | inhibition of neointima formation (neointima formation)
CCOC(=O)c1cnc(Nc2ccc(N3CCNCC3)cn2)nc1NC1CCCC1 (as salt: hydrochloride) | 180 °C |  |  | 
COc1ccc(CNc2nc(N(CCO)CCO)nc3c2ncn3C(C)C)cc1 [CVT-313] |  |  |  | greater than 80%
CNc1nc(Nc2ccc(N3CCOCC3)cc2)nc(NC2CCCC2)n1 [Example 14D, N-Cyclopentyl-N′-methyl-N″-(4-morpholin-4-yl-phenyl)-[1,3,5]triazine-2,4,6-triamine] | 218 to 219 °C |  |  | 
Clc1nc(Nc2ccc(N3CCOCC3)nc2)nc(NC2CCCC2)n1 [Example 14E, 6-Chloro-N-cyclopentyl-N′-(6-morpholin-4-yl-pyridin-3-yl)-[1,3,5]triazine-2,4-diamine] | 218 to 219 °C |  |  | 
O=C1N(Cc2ccccc2)Cc2cnc(Nc3ccc(N4CCCCC4)cn3)nc2N1C1CCCC1 [Example 15, 3-Benzyl-1-cyclopentyl-7-(3,4,5,6-tetrahydro-2H-[1,3′]bipyridinyl-6′-ylamino)-3,4-dihydro-1H-pyrimido[4,5-d]pyrimidin-2-one] | 194 to 196 °C |  |  | 

Continued, in another order:

melting point | IC50 (Cdk4/Cyclin D) [nM] | IC50 (Cdk2/cyclin A) [nM] | Structure (SMILES) | inhibition of neointima formation (neointima formation)
 | 14 | 913 | Cc1nc2cnc(Nc3ccc(N4CCNCC4)cc3)nc2n(C2CCCC2)c1=O [8′, reference compound] | 
 | 28 | 4120 | CCc1nc2cnc(Nc3ccc(N4CCNCC4)cc3)nc2n(C2CCCC2)c1=O [10′, reference compound] | 
221 to 223 °C | 510 | > 5000 | Cc1nc2cnc(Nc3ccc(N4CCNCC4)cn3)nc2n(C2CCCC2)c1=O [Example 8, 8-Cyclopentyl-6-methyl-2-(5-piperazin-1-yl-pyridin-2-ylamino)-8H-pteridin-7-one] | 
203 to 208 °C (dec.) | 335 | > 5000 | CCc1nc2cnc(Nc3ccc(N4CCNCC4)cn3)nc2n(C2CCCC2)c1=O [Example 10, 8-Cyclopentyl-6-ethyl-2-(5-piperazin-1-yl-pyridin-2-ylamino)8H-pteridin-7-one] | 
> 200 °C | 4 | 1700 | COc1ccc2cnc(Nc3ccc(N4CCNCC4)cn3)nc2c1C1CCCC1 [Example 13, (8-Cyclopentyl-7-methoxy-quinazolin-2-yl)-(5-piperazin-1-yl-pyridin-2-yl)-amine] | 

Source: patent US20040236084A1, “2-Aminopyridine substituted heterocycles” (Pfizer Inc, priority 2003, published 2004)
